Where only a bound is given, the exact number is not on record here.

The test system of this test is LXRα and/or LXRβ. The test can be described thus: LXR/LXRE co-transfection assay (luciferase reporter, CV-1 cells). It is filed as cell-based, human. The settings on record: IC50 or EC50 for LXR (LXRα and/or LXRβ, not distinguished), tested as described in Example 109, CV-1 cells. From the text:
To measure the ability of compounds to activate or inhibit the transcriptional activity of LXR in a cell based assay, the co-transfection assay was used. It has been shown that LXR functions as a heterodimer with RXR. For the co-transfection assay; expression plasmids for LXR and RXR are introduced via transient transfection into mammalian cells along with a luciferase reporter plasmid that contains one copy of a DNA sequence that is bound by LXR-RXR heterodimers (LXRE; Willy, P. ad. 1995). Treatment of transfected cells with an LXR agonist increases the transcriptional activity of LXR, which is measured by an increase in luciferase activity.
CV-1 African Green Monkey Kidney Cells Co-transfection expression plasmids, comprising full-length LXRα (pCMX-h LXRα, LXRβ (pCMX-hLXRβ), or RXRα (pCMX-RXR), reporter plasmid (LXREx1-Tk-Luciferase), and control (pCMX-Galactosidase expression vector) (Willey et al. Genes & Development 91033-1045 (1995)). Transfection reagent such as FuGENE6 (Roche). 1× Cell lysis buffer (1% Triton X 100 (IT Baker X200-07), 10% Glycerol (JT Baker M778-07), 5 mM Ditriotreitol (Quantum Bioprobe DTT03; add fresh before lysing), 1 mM EGTA (Ethylene Glycol-bis(B-Amino ethyl ether)-N,N,N′,N′-Tetracetic Acid) (Sigma E-4378), 25 mM Tricine (ICN 807420) pH 7.8) 1× Luciferase assay buffer (pH at 7.8) (0.73 mM ATP, 22.3 mM Tricine, 0.11 mM EDTA, 33.3 mM DTT) 1× Luciferrin/CoA (11 mM Luciferin, 3.05 mM Coenzyme A, 10 mM HEPES) Preparation of Screening Reagents
CV-1 cells were prepared 24 hours prior to the experiment by plating them into T-175 flasks or 500 cm^2 dishes in order to achieve 70-80% confluency on the day of the transfection. The number of cells to be transfected was determined by the number of plates to be screened. each 384 well plate requires 1.92×10^6 cells or 5000 cells per well. DNA Transfection Reagent was prepared by mixing the required plasmid DNAs with a cationic lipid transfection reagent FuGENE6 (Roche) by following the instructions provided with the reagents. Optimal DNA amounts were determined empirically per cell line and size of vessel to be transfected. 10-12 mL of media was added to the DNA Transfection Reagent and this mixture was added to the cells after aspirating media from the T175 cm^2 flask. Cells were then incubated at least 5 hours at 37° C. to prepare screening cells.
Luciferase assay reagent was prepared by combining before use (per 10 mL): […], 0.54 mL of 1× Luciferrin/CoA; 0.54 mL of 0.2 M Magnesium sulfate
Assay plates were prepared by dispensing 5 μL of compound per well of a 384 well plate to achieve final compound concentration of 10 μM and no more than 1% DMSO. Media was removed from the screening cells, the cells trypsinized, harvested cells by centrifugation, counted, and plated at a density of approximately 5000 cells per well in the 384 well assay plate prepared above in a volume of about 45 μL. Assay plates containing both compounds and screening cells (50 μL in total volume) were incubated for 20 hours at 37° C.
After incubation with compounds, media was removed from the cells and lysis buffer (30 μL/well) added. After 30 minutes at ambient temperature, luciferase assay buffer (30 μL/well) was added and the assay plates read on a luminometer (PE Biosystems Northstar reader with on-board injectors, or equivalent). Plates were read immediately after addition of luciferase assay buffer.
The LXR/LXRE co-transfection assay can be used to establish the EC50/IC50 values for potency and percent activity or inhibition for efficacy. Efficacy defines the activity of a compound relative to a high control ((N-(3-((4-fluorophenyl)-(naphthalene-2-sulfonyl)amino)propyl)-2,2-dimethylpropionamide)) or a low control (DMSO/vehicle). The dose response curves are generated from an 8 point curve with concentrations differing by ½ LOG units. each point represents the average of 4 wells of data from a 384 well plate. […]
On to `CC(C)(O)c1nn(-c2ccncc2Cl)c(-c2ccc(-c3cccc(S(C)(=O)=O)c3)s2)c1Cl` [Example 125, 2-(4-chloro-1-(3-chloropyridin-4-yl)-5-(5-(3-(methylsulfonyl)phenyl)thiophen-2-yl)-1H-pyrazol-3-yl)propan-2-ol], for which the concentration for a half-maximal effect (EC50) was below 1000 nM.
The compound `CC(C)(O)c1cc(-c2ccc(-c3cccc(S(C)(=O)=O)c3)s2)n(-c2c(Cl)cncc2Cl)n1` [Example 126, 2-(1-(3,5-dichloropyridin-4-yl)-5-(5-(3-(methylsulfonyl)phenyl)thiophen-2-yl)-1H-pyrazol-3-yl)propan-2-ol] came in with a concentration giving a half-maximal response (EC50) below 1000 nM.
In turn, `CC(C)(O)c1nn(-c2c(Cl)cncc2Cl)c(-c2ccc(-c3cccc(S(C)(=O)=O)c3)s2)c1Cl` [Example 127, 2-(4-chloro-1-(3,5-dichloropyridin-4-yl)-5-(5-(3-(methylsulfonyl)phenyl)thiophen-2-yl)-1H-pyrazol-3-yl)propan-2-ol] came in with an EC50 below 1000 nM.
For the compound `CC(C)(O)c1nn(-c2ccccc2Cl)c(-c2ccc(-c3cccc(S(C)(=O)=O)c3)cn2)c1Cl` [Example 128, 2-(4-chloro-1-(2-chlorophenyl)-5-(5-(3-(methylsulfonyl)phenyl)pyridin-2-yl)-1H-pyrazol-3-yl)propan-2-ol], the EC50 is 1000 to 10000 nM.
As for `CC(C)(O)c1cc(-c2c(F)cccc2Cl)n(-c2ccc(-c3cccc(S(C)(=O)=O)c3)cc2Cl)n1` [Example 130, 2-(1-(3-chloro-3′-(methylsulfonyl)biphenyl-4-yl)-5-(2-chloro-6-fluorophenyl)-1H-pyrazol-3-yl)propan-2-ol], the EC50 was below 1000 nM.
The compound `CC(C)(O)c1cc(-c2cccc(F)c2F)n(-c2ccc(-c3cccc(S(C)(=O)=O)c3)cc2Cl)n1` [Example 131, 2-(1-(3-chloro-3′-(methylsulfonyl)biphenyl-4-yl)-5-(2,3-difluorophenyl)-1H-pyrazol-3-yl)propan-2-ol] came in with an EC50 below 1000 nM.
Take `CC(C)(O)c1nn(-c2ccccc2Cl)c(-c2ccc(-c3cccc(S(C)(=O)=O)c3)nc2)c1Cl` [Example 132, 2-(4-chloro-1-(2-chlorophenyl)-5-(6-(3-(methylsulfonyl)phenyl)pyridin-3-yl)-1H-pyrazol-3-yl)propan-2-ol]: the EC50 fell in the range of 1000 to 10000 nM.
The same measure for `CC(C)(O)c1cc(-c2ccc(-c3cccc(S(C)(=O)=O)c3)cc2)n(-c2c(Cl)cccc2Cl)n1` [Example 133, 2-(1-(2,6-dichlorophenyl)-5-(3′-(methylsulfonyl)biphenyl-4-yl)-1H-pyrazol-3-yl)propan-2-ol]: below 1000 nM; for `COC(C)(C)c1cc(-c2ccc(-c3cccc(S(C)(=O)=O)c3)s2)n(-c2ccccc2Cl)n1` [Example 134, 1-(2-chlorophenyl)-3-(2-methoxypropan-2-yl)-5-(5-(3-(methylsulfonyl)phenyl)thiophen-2-yl)-1H-pyrazole]: below 1000 nM.
As to `CC(C)(O)c1cc(-c2cccc(Cl)c2Cl)n(-c2ccc(-c3cccc(S(C)(=O)=O)c3)cc2Cl)n1` [Example 135, 2-(1-(3-chloro-3′-(methylsulfonyl)biphenyl-4-yl)-5-(2,3-dichlorophenyl)-1H-pyrazol-3-yl)propan-2-ol], the concentration for a half-maximal effect (EC50) was below 1000 nM.
As to `Cc1cc(-c2cccc(S(C)(=O)=O)c2)ccc1-n1nc(C(C)(C)O)cc1-c1cccc(Cl)c1Cl` [Example 136, 2-(5-(2,3-dichlorophenyl)-1-(3-methyl-3′-(methylsulfonyl)biphenyl-4-yl)1H-pyrazol-3-yl)propan-2-ol], the EC50 was below 1000 nM.
On to `Cc1cc(-c2cccc(S(C)(=O)=O)c2)sc1-c1cc(C(C)(C)O)nn1-c1c(Cl)cccc1Cl` [Example 137, 2-(1-(2,6-dichlorophenyl)-5-(3-methyl-5-(3-(methylsulfonyl)phenyl)thiophen-2-yl)-1H-pyrazol-3-yl)propan-2-ol], for which the EC50 is below 1000 nM.
The value for `CC(C)(O)c1nn(-c2c(Cl)cccc2Cl)c(-c2ccc(-c3cccc(S(C)(=O)=O)c3)cc2)c1Cl` [Example 138, 2-(4-chloro-1-(2,6-dichlorophenyl)-5-(3′-(methylsulfonyl)biphenyl-4-yl)-1H-pyrazol-3-yl)propan-2-ol] was below 1000 nM; that for `Cc1cc(-c2cccc(S(C)(=O)=O)c2)ccc1-n1nc(C(C)(C)O)cc1-c1ccccc1C(F)(F)F` [Example 139, 2-(1-(3-methyl-3′-(methylsulfonyl)biphenyl-4-yl)-5-(2-(trifluoromethyl)phenyl)-1H-pyrazol-3-yl)propan-2-ol] was below 1000 nM; that for `CC(C)(O)c1cc(-c2ccccc2C(F)(F)F)n(-c2ccc(-c3cccc(S(C)(=O)=O)c3)cc2Cl)n1` [Example 140, 2-(1-(3-chloro-3′-(methylsulfonyl)biphenyl-4-yl)-5-(2-(trifluoromethyl)phenyl)-1H-pyrazol-3-yl)propan-2-ol] was below 1000 nM.
The compound `CC(C)(O)c1cc(-c2ccc(-c3cccc(S(C)(=O)=O)c3)cc2Cl)n(-c2c(Cl)cccc2Cl)n1` [Example 142, 2-(5-(3-chloro-3′-(methylsulfonyl)biphenyl-4-yl)-1-(2,6-dichlorophenyl)-1H-pyrazol-3-yl)propan-2-ol] showed an EC50 below 1000 nM.
`CS(=O)(=O)c1cccc(-c2ccc(-c3cc(C(=O)N4CCCC4)nn3-c3c(Cl)cccc3Cl)c(Cl)c2)c1` [Example 143, (5-(3-chloro-3′-(methylsulfonyl)biphenyl-4-yl)-1-(2,6-dichlorophenyl)-1H-pyrazol-3-yl)(pyrrolidin-1-yl)methanone] gave an EC50 below 1000 nM.
The compound `CC(C)(O)c1nn(-c2c(Cl)cccc2Cl)c(-c2ccc(-c3cccc(S(C)(=O)=O)c3)cc2Cl)c1Cl` [Example 144, 2-(4-chloro-5-(3-chloro-3′-(methylsulfonyl)biphenyl-4-yl)-1-(2,6-dichlorophenyl)-1H-pyrazol-3-yl)propan-2-ol] showed an EC50 below 1000 nM.
In the case of `Cc1cc(-c2cccc(S(C)(=O)=O)c2)cnc1-n1nc(C(C)(C)O)c(Cl)c1-c1ccccc1Cl` [Example 145, 2-(4-chloro-5-(2-chlorophenyl)-1-(3-methyl-5-(3-(methylsulfonyl)phenyl)pyridin-2-yl)-1H-pyrazol-3-yl)propan-2-ol], the EC50 is below 1000 nM.
In the case of `Cc1cc(-c2cccc(S(C)(=O)=O)c2)cc(C)c1-n1nc(C(C)(C)O)cc1-c1ccccc1Cl` [Example 146, 2-(5-(2-chlorophenyl)-1-(3,5-dimethyl-3′-(methylsulfonyl)biphenyl-4-yl)-1H-pyrazol-3-yl)propan-2-ol], the EC50 is below 1000 nM.
The same measure for `Cc1cc(-c2cccc(S(C)(=O)=O)c2)ccc1-c1cc(C(C)(C)O)nn1-c1c(Cl)cccc1Cl` [Example 147, 2-(1-(2,6-dichlorophenyl)-5-(3-methyl-3′-(methylsulfonyl)biphenyl-4-yl)-1H-pyrazol-3-yl)propan-2-ol]: below 1000 nM.
`Cc1cc(-c2cccc(S(C)(=O)=O)c2)ccc1-c1cc(C(=O)N2CCCC2)nn1-c1c(Cl)cccc1Cl` [Example 148, (1-(2,6-dichlorophenyl)-5-(3-methyl-3′-(methylsulfonyl)biphenyl-4-yl)-1H-pyrazol-3-yl)(pyrrolidin-1-yl)methanone] showed an EC50 below 1000 nM.
For the compound `Cc1cc(-c2cccc(S(C)(=O)=O)c2)ccc1-n1nc(C(C)(C)O)c(Cl)c1-c1c(F)cccc1Cl` [Example 149, 2-(4-chloro-5-(2-chloro-6-fluorophenyl)-1-(3-methyl-3′-(methylsulfonyl)biphenyl-4-yl)-1H-pyrazol-3-yl)propan-2-ol], the concentration for a half-maximal effect (EC50) was below 1000 nM.

One may read the EC50 as the concentration at which the effect is half-maximal. Low readings indicate higher potency in that assay, high ones lower potency in that assay.

Source of the values: US8703805B2 (Exelixis Patent Company LLC, priority 2005, dated 2014).
